Earlier results in patent US9604971B2, “Co-crystal of the PAR-1 receptor antagonists vorapaxar and aspirin” (ARALEZ PHARMACEUTICALS TRADING DAC, priority 2013, dated 2017).

Settings: over time; reverted to the crystalline structure of Form 1

In the case of CCOC(=O)N[C@@H]1CC[C@@H]2[C@@H](C1)C[C@H]1C(=O)O[C@H](C)[C@H]1[C@H]2/C=C/c1ccc(-c2cccc(F)c2)cn1 [Form 2], the “stability of crystalline polymorphic form” value is listed as “unstable”.
